According to patent US20240130944A1, “LRAT INHIBITORS FOR TREATING SKIN AGEING” (DSM IP Assets B.V., priority 2021, published 2024):

Experiments:
[1] = tested on: living human skin explants; experiment: Epidermal thickness on living human skin explants; type: cell-based; set-up: key: 0 = unchanged; (+) = very slight increased; + = slight increased; ++ = moderate increased; +++ = fairly clear increased; ++++ = clear increased; conditions: topical
Procedure: (§1) On an abdoplasty coming from a person with a type II phototype, 51 circular skin explants of 11±1 mm in diameter were prepared. The explants were kept for survival in BEM culture medium (BIO-EC's Explants Medium, Longjumeau, France) at 37° C. in a humid, 5% CO2 atmosphere
(§2) Each morning on day 0, 1, 4 and 6 the test products (except retinol) were applied topically on the basis of […] (2 mg/cm2) of the concerned skin explants and spread using a small spatula. Each evening on day 0, 1, 4, 6 the retinol was applied topically on the basis of 2 μl/ explants (2 mg/cm2) of the concerned skin explants and spread using a small spatula. The vehicle V (DMSO 100%) was applied topically (same protocol as for products) in the morning and in the evening on day0, 1, 4, 6. The culture medium was refreshed on dayl, 4 and 6.
(§3) On day 0, 3 explants from the batch at day 0 were collected and cut in two parts. Half was fixed in buffered formalin solution and half was frozen at −80° C. On day 8, 3 explants from each experimental condition were collected and processed in the same way as on day 0.
(§4) After fixation for 24 hours in buffered formalin, the samples were dehydrated and impregnated in paraffin using a Leica PEARL dehydration automat. The samples were embedded using a Leica EG 1160 embedding station. 5-μm-thick sections were made using a Leica RM 2125 Minot-type microtome, and the sections were mounted on Superfrost® histological glass slides. The frozen samples were cut at 7-μm thickness with a Leica CM 3050 cryostat. The sections were then mounted on silanized glass slides Superfrost® Plus. The microscopical observations were realized using a Leica DMLB or Olympus BX43 microscope. Pictures were digitized with a numeric DP72 Olympus camera with cellSens storing software.
The cell viability of the epidermal and dermal structures was controlled on formalin-fixed paraffin-embedded (FFPE) skin sections after to Masson's trichrome staining, Goldner variant. The cell viability was assessed by microscopical observation.

Collagen III = Collagen III immunostaining on living human skin explants; type: cell-based; set-up: key: 0 = unchanged; (+) = very slight increased; + = slight increased; ++ = moderate increased; +++ = fairly clear increased; ++++ = clear increased; conditions: topical
Procedure: as §1, §2, §3, §4
The staining was assessed by microscopical observation

recombinant LRAT enzyme = target: T1, recombinant LRAT enzyme (Homo sapiens, UniProt O95237); experiment: LRAT inhibition assay; type: biochemical; conditions: inhibitor concentration 100 [μm]; relative to non-inhibited control reaction
T1 construct: purchased Abnova H00009227-PO1
T1 sequence (O95237 1-230): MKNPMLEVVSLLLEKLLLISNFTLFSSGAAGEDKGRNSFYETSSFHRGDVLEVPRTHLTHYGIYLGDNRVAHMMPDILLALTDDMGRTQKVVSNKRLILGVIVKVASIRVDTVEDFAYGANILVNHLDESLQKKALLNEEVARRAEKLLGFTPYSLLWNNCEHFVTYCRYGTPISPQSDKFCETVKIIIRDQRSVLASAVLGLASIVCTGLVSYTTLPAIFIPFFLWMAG
Procedure: The following buffer was prepared and stored at 4° C.: 0.05 M potassium phosphate, 2.5 mM dithioerythritol, pH 7.0(PO4/DTE). On the day of the assay, 1 mg BSA per mL of buffer was added to give a P04/DTE/BSA working buffer. Retinol substrate (Fluke, 1 mM) was prepared in acetonitrile (Riedel-de-Haen, Chromasolv) and stored in amber bottles under nitrogen gas at −20° C. Solutions of 4 mM dilauroyl phosphatidyl choline in ethanol were prepared and stored at −20° C. Inhibitors were prepared as 10 mM stock solutions according their solubilities in H2O, ethanol, acetonitrile, DMSO or acetic acid. The quenching solution was prepared using pure ethanol containing 50 μg/mL butylhydroxytoluene (Aldrich, BHT) A pentane solution containing 50 μg/mL BHT was used for the extractions.
To a 2 dram glass vial, the following were added in order: […] buffer to give a total volume of 500 μL, 5 μL acyl donor (dilauroyl phosphatidyl choline), 5 μL inhibitor or solvent blank (10 mM stock or further dilutions) followed by 2 μg recombinant LRAT enzyme (Abnova, H00009227-PO1). The mixture was incubated for 5 min. at 37° C. to equilibrate the reaction temperature and then 5 μL of a 1 mM retinol solution was added. The vials were capped, vortexed for 5 seconds and incubated for 60 minutes at 37° C. The reaction was quenched by adding 0.5 mL of a ethanol/BHT quenching solution. The retinoids were extracted by adding 1 mL pentane/BHT, vortexing the tubes for several seconds and centrifuging the tubes at 4000 rpm in a bench-top centrifuge for 5 min. to quickly separate the layers. The upper pentane layer was removed into a clean vial, and the aqueous layer re-extracted twice with another 1 mL pentane/BHT, as described above. […] The dried residue was stored at −20° C. and directly analyzed by HPLC. The amount of retinyl laurate was quantified for LRAT activity by integration of the HPLC or UPLC signal as described below. […]
Two HPLC protocols were used for retinoid analysis. The separation of retinol and retinol esters was performed with a reverse-phase analytical column (Waters Symmetry (R), 75×4.6 mm, 3.5 μm; Eluent A: 0.07% trifluoroacetic acid TFA in water, B: 0.07% TFA in acetonitrile (AcN), linear gradient from 1% B to 99% B in 6 min, 24 min on 99% B) or ACQUITY UPLC BEH Phenyl 1.7 μm 2.1×50 mm (0.02% TFA in water and eluent B, 0.02% TFA in AcN with a gradient of 2% to 99% B in 0.9 min, 99% B for 1 min, from 99% to 2% B in 0.1 min and flow rate 0.5 ml/min at 40° C. The eluate was monitored with a PDA detector for absorbance at 325 nm. Quantification of the retinol and retinylester peak was based on references retinoic acid and retinyl acetate (Fluke). The inhibition [%] was calculated relative to the product yield from the non-inhibited control reaction.

[2] = LRAT inhibitor 0.005% with Retinol 0.05%
[3] = LRAT inhibitor 0.005%, no retinol
[4] = LRAT inhibitor 0.01% with Retinol 0.05%
[5] = LRAT inhibitor 0.01%, no retinol
[6] = LRAT inhibitor 0.1% with Retinol 0.05%

With `CCCCCCCCCCS(=O)(=O)NC(Cc1cccc(C(=N)N)c1)C(=O)N1CCN(S(C)(=O)=O)CC1` (centres unmarked) [LRAT-IA, DECS-(L)-F(3AMD)-Pzd(N-SO2Me)] the “change of Epidermis thickness compared to control (vehicle only) on day 8” value (“change of Epidermis thickness” for short) [1, 2] was “+”, the “change of Epidermis thickness” value [1, 3] was “(+)” and the “change of Epidermis thickness” value [1, 4] was “+”. For the same compound, the “change of Epidermis thickness” value [1, 5] was “+”, the “change of Epidermis thickness” value [1, 6] was “+” and the “change of Collagen III level (staining) compared to control (vehicle only) on day 8” value (shortened to “change of Collagen III level (staining)”) (Collagen III; [2]) was “+”. For the same compound, the “change of Collagen III level (staining)” value (Collagen III; [3]) was 0, the “change of Collagen III level (staining)” value (Collagen III; [4]) was “++” and the “change of Collagen III level (staining)” value (Collagen III; [5]) was 0. The “change of Collagen III level (staining)” value (Collagen III; [6]) was “+++” and the “change of Collagen III level (staining)” value (Collagen III; LRAT inhibitor 0.1%, no retinol) was “++”.

With “DODS-(L)-F(4NH2)-Pzd(N—SO2Me) [reference compound]” the “LRAT inhibition, Inhibition [%]” value (recombinant LRAT enzyme) was 0%.

`CC(=O)N1CCN(C(=O)[C@H](Cc2cccc(C(=N)N)c2)NS(=O)(=O)c2ccc3ccccc3c2)CC1` [2NAPS-(L)-F(3AMD)-Pzd(N—Ac)] was tested, and the “LRAT inhibition, Inhibition [%]” value (recombinant LRAT enzyme) was 38.7%.

In the case of `CCCCCCCCS(=O)(=O)NC(Cc1cccc(C(=N)N)c1)C(=O)N1CCN(S(=O)(=O)CCCCCCCC)CC1` (centres unmarked) [OCTS-(D,L)-F(3AMD)-Pzd(N—SO2Oct)], the “LRAT inhibition, Inhibition [%]” value (recombinant LRAT enzyme) is reported as 89.9%.

With `CC1=C(/C=C/C(C)=C/C=C/C(C)=C/CO)C(C)(C)CCC1` [Retinol, reference compound] the “change of Epidermis thickness” value ([1]; Retinol 0.05% alone) was “+” and the “change of Collagen III level (staining)” value (Collagen III; Retinol 0.05% alone) was “+”.

In the case of `CS(=O)(=O)N1CCN(C(=O)C(N)Cc2cccc(C(=N)N)c2)CC1.Cl.Cl` (centres unmarked) [H-(D,L)-F(3AMD)-Pzd(N—SO2Me) × 2 HCl, H-(D,L)-F(3AMD)-Pzd(N—SO2Me), reference compound], the “LRAT inhibition, Inhibition [%]” value (recombinant LRAT enzyme) is reported as 6.8%.
